For experiment [1], the system named is M. tuberculosis alone or macrophages infected by M. tuberculosis. Kind of experiment: Potentiation of ethionamide cell test (High Content Screening). In kind it is cell-based. As to conditions: ligand concentration potentiating ten times the activity of ethionamide, ethionamide constant at 0.1 μg/mL (1/10th of its CMI99).
A further experiment has as its target EthR protein (Mycobacterium tuberculosis, UniProt P9WMC1). Kind of experiment: TSA test (Thermal Shift Assay), fluorescence with Sypro Orange. In kind it is binding, M. tuberculosis. As to conditions: melting temperature shift of EthR with ligand vs protein alone.

Structures are written as SMILES. Like-named read-outs stand apart in the source and are kept apart here.

For orientation: EC50 means the concentration at which the effect is half-maximal. Usually ΔTm stands for the shift of the melting midpoint relative to a reference.

Sequence of EthR protein (P9WMC1 whole entry, looked up): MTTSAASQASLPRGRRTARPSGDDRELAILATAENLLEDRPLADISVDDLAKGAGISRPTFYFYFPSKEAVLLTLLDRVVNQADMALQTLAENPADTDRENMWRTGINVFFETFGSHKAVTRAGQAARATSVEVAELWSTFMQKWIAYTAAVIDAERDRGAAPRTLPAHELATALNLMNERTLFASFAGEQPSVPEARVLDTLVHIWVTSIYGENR

With `Cc1nnc(-c2ccc(C(=O)NCCC(F)(F)F)cc2)s1` [Compound 83, 4-(5-methyl-1,3,4-thiadiazol-2-yl)-N-(3,3,3-trifluoropropyl)benzamide], in experiment [1] (read-out: EC50), the EC50 was 1400 nM.
On to `O=C(NCCC(F)(F)F)c1ccc(-c2nsc(CO)n2)cc1` [Compound 90, 4-(5-(hydroxymethyl)-1,2,4-thiadiazol-3-yl)-N-(3,3,3-trifluoropropyl)-benzamide], for which the concentration for a half-maximal effect (EC50) in experiment [1] (read-out: EC50) was 130 nM.
With `COC(=O)Cc1nc(-c2ccc(S(=O)(=O)NCCC(F)(F)F)cc2)cs1` [Compound 33, 2-(4-(4-(N-(3,3,3-trifluoropropyl)sulfamoyl)phenyl)thiazol-2-yl)methyl acetate], on EthR protein, the ΔTm amounted to 9.5 °C. In experiment [1] (read-out: EC50), the EC50 stood at 860 nM.
In the case of `Cc1nc(-c2ccc(S(=O)(=O)NCC(F)(F)C(F)(F)F)cc2)cs1` [Compound 25, 4-(2-methylthiazol-4-yl)-N-(2,2,3,3,3-pentafluoropropyl)benzene sulfonamide], at EthR protein, the ΔTm is 8.6 °C. Also, the EC50 in experiment [1] (read-out: EC50) is > 20000 nM.
For the molecule `CC(C)OC(=O)Cc1nc(-c2ccc(C(=O)NCCC(F)(F)F)cc2)cs1` [Compound 53, 2-(4-(4-(3,3,3-trifluoropropylcarbamoyl)phenyl)thiazol-2-yl(isopropyl acetate], on EthR protein, the ΔTm came out at 13.2 °C. In experiment [1] (read-out: EC50), the EC50 was 330 nM.
For the molecule `Cc1nc(-c2ccc(S(=O)(=O)NCC(F)(F)F)cc2)cs1` [Compound 26, 4-(2-methylthiazol-4-yl)-N-(2,2,2-trifluoroethyl)benzene sulfonamide], on EthR protein, the ΔTm came out at 6.3 °C. For the same molecule, the half-maximal effective concentration (EC50) in experiment [1] (read-out: EC50) is 7900 nM.
`Cc1nc(-c2ccc(C(=O)NCCC(F)(F)F)cc2)c(Cl)s1` [Compound 64, 4-(5-chloro-2-methylthiazol-4-yl)-N-(3,3,3-trifluoropropyl)benzamide]: the ΔTm on EthR protein was 8.7 °C. Further, the EC50 in experiment [1] (read-out: EC50) turned out to be 350 nM.
For the molecule `CCOC(=O)Cc1nc(-c2ccc(C(=O)NCCC(F)(F)F)cc2)cs1` [Compound 52], the ΔTm at EthR protein was 10.1 °C. The 50% effective concentration (EC50) in experiment [1] (read-out: EC50) is 190 nM.
`Cc1nc(-c2ccc(C(=O)NCCC(F)(F)F)nc2)cs1` [Compound 67, 5-(2-methylthiazol-4-yl)-N-(3,3,3-trifluoropropyl)picolinamide]: in experiment [1] (read-out: EC50), the EC50 is 120 nM.
Consider `CCCS(=O)(=O)NCc1nc(-c2ccc(C(=O)NCCC(F)(F)F)cc2)cs1` [Compound 103, 4-(2-(propylsulfonamidomethyl)thiazol-4-yl)-N-(3,3,3-trifluoropropyl)benzamide], for which, on EthR protein, the ΔTm stood at 6.6 °C. In experiment [1] (read-out: EC50), the EC50 was 320 nM.
For `O=C(NCCC(F)(F)F)c1ccc(-n2cc(C3CC3)nn2)cc1` [Compound 95, 4-(4-cyclopropyl-1H-1,2,3-triazol-1-yl)-N-(3,3,3-trifluoropropyl)-benzamide], in that order: 3.5 °C and 1700 nM.
Consider `Cc1nc(-c2ccc(S(=O)(=O)NCCC(C)(C)C)cc2)cs1` [Compound 23, N-(3,3-dimethylbutyl)-4-(2-methylthiazol-4-yl)benzene sulfonamide], for which the ΔTm on EthR protein amounted to 2.3 °C. Besides, in experiment [1] (read-out: EC50), the EC50 was > 20000 nM.
Regarding `O=C(NCCC(F)(F)F)c1ccc(-c2cscn2)cc1` [Compound 56, 4-(thiazol-4-yl)-N-(3,3,3-trifluoropropyl)benzamide], on EthR protein, the ΔTm worked out at 8.1 °C. Moreover, the EC50 in experiment [1] (read-out: EC50) is 360 nM.
Consider `Cc1nc(-c2ccc(C(=O)NCCC(F)(F)F)cn2)cs1` [Compound 71, 6-(2-methylthiazol-4-yl)-N-(3,3,3-trifluoropropyl)nicotinamide], for which the EC50 in experiment [1] (read-out: EC50) turned out to be 1700 nM.
In the case of `Cc1nc(-c2ccc(C(=O)NCCC(F)(F)F)cc2)co1` [Compound 72, 4-(2-methyloxazol-4-yl)-N-(3,3,3-trifluoropropyl)benzamide], the EC50 in experiment [1] (read-out: EC50) is 180 nM.
In the case of `Cc1nc(-c2ccc(C(=O)NCCC(F)(F)F)cc2)c(F)s1` [Compound 62, 4-(5-fluoro-2-mthylthiazol-4-yl)-N-(3,3,3-trifluoropropyl)benzamide], in experiment [1] (read-out: EC50), the EC50 came to 55 nM.
As to `O=S(=O)(NCC#Cc1ccc(S(=O)(=O)NCCC(F)(F)F)cc1)c1ccccc1` [Compound 106, 4-(3-(phenylsulfonamido)prop-1-ynyl)-N-(3,3,3-trifluoropropyl)-benzene sulfonamide], on EthR protein, the ΔTm turned out to be 3.3 °C. Besides, the EC50 in experiment [1] (read-out: EC50) came out at 1800 nM.
In the case of `O=C(NCCC(F)(F)F)c1ccc(-c2csc(CNS(=O)(=O)c3ccccc3)n2)cc1` [Compound 104, 4-(2-(phenylsulfonamidomethyl)thiazol-4-yl)-N-(3,3,3-trifluoro-propyl)benzamide], the ΔTm on EthR protein stood at 1.2 °C. For the same molecule, the EC50 in experiment [1] (read-out: EC50) is 150 nM.
With `Cc1nnc(-c2ccc(C(=O)NCCC(F)(F)F)cc2)o1` [Compound 80, 4-(5-methyl-1,3,4-oxadiazol-2-yl)-N-(3,3,3-trifluoropropyl)benzamide], the EC50 in experiment [1] (read-out: EC50) turned out to be 960 nM.
As to `CC(C)(C)S(=O)(=O)Cc1nc(-c2ccc(C(=O)NCCC(F)(F)F)cc2)cs1` [Compound 50, 4-(2-(tert-butylsulfonylmethyl)thiazol-4-yl)-N-(3,3,3-trifluoropropyl)-benzamide], the ΔTm on EthR protein stood at 9.6 °C. Besides, the EC50 in experiment [1] (read-out: EC50) worked out at 41 nM.
With `O=C(NCCC(F)(F)F)c1ccc(-n2cc(CCO)nn2)cc1` [Compound 97, 4-(4-(2-hydroxyethyl)-1H-1,2,3-triazol-1-yl)-N-(3,3,3-trifluoropropyl)-benzamide], on EthR protein, the ΔTm is 1.2 °C. For the same molecule, the EC50 in experiment [1] (read-out: EC50) amounted to 2000 nM.
In the case of `CC(C)CCc1cn(-c2ccc(C(=O)NCCC(F)(F)F)cc2)nn1` [Compound 93, 4-(4-isopentyl-1H-1,2,3-triazol-1-yl)-N-(3,3,3-trifluoropropyl)benzamide], at EthR protein, the ΔTm was determined as 3.8 °C. In addition, the EC50 in experiment [1] (read-out: EC50) is > 10000 nM.
Regarding `O=C(NCCC(F)(F)F)c1ccc(C#CCNS(=O)(=O)c2ccccc2)cc1` [Compound 112, 4-(3-(phenylsulfonamido)prop-1-ynyl)-N-(3,3,3-trifluoropropyl)-benzamide], the ΔTm at EthR protein was 4.2 °C. In experiment [1] (read-out: EC50), the EC50 amounted to 230 nM.
As to `O=S(=O)(NCCC(F)(F)F)c1ccc(-c2nc3ccccc3s2)cc1` [Compound 42, 4-(benzo[d]thiazol-2-yl)-N-(3,3,3-trifluoropropyl)benzene sulfonamide], the EC50 in experiment [1] (read-out: EC50) is 300 nM.
As for `[N-]=[N+]=Nc1ccc(C(=O)NCCC(F)(F)F)cc1` [Compound 92, 4-azido-N-(3,3,3-trifluoropropyl)benzamide], the ΔTm at EthR protein was 6.0 °C. Further, in experiment [1] (read-out: EC50), the EC50 came out at 1100 nM.
In the same order, the values of `CC(C)CCNS(=O)(=O)c1ccc(-c2csc(CC#N)n2)cc1` [Compound 17, 4-(2-(cyanomethyl)thiazol-4-yl)-N-isopentyl benzene sulfonamide] are 5.3 °C and 7900 nM.
Take `Cc1nc(-c2ccc(S(=O)(=O)NCCCC(F)(F)F)cc2)cs1` [Compound 27, 4-(2-methylthiazol-4-yl)-N-(4,4,4-trifluorobutyl)benzene sulfonamide]: the shift in melting temperature (ΔTm) at EthR protein worked out at 6.6 °C. Moreover, the EC50 in experiment [1] (read-out: EC50) was > 2500 nM.
Turning to `CCOC(=O)c1nc(-c2ccc(C(=O)NCCC(F)(F)F)cc2)cs1` [Compound 54, 4-(4-(3,3,3-trifluoropropylcarbamoyl)phenyl)thiazole-2-ethyl carboxylate], the ΔTm at EthR protein amounted to 9.6 °C. The EC50 in experiment [1] (read-out: EC50) is > 2500 nM.
Consider `CC(C)NC(=O)Cc1nc(-c2ccc(S(=O)(=O)NCCC(F)(F)F)cc2)cs1` [Compound 36, N-isopropyl-2-(4-(4-(N-(3,3,3-trifluoropropyl)sulfamoyl)phenyl)thiazol-2-yl)acetamide], for which the EC50 in experiment [1] (read-out: EC50) was 210 nM.
In the case of `CC(C)OC(=O)c1nc(-c2ccc(C(=O)NCCC(F)(F)F)cc2)cs1` [Compound 55, 4-(4-(3,3,3-trifluoropropylcarbamoyl)phenyl)thiazole-2-isopropyl carboxylate], on EthR protein, the ΔTm stood at 8.2 °C. For the same molecule, the EC50 in experiment [1] (read-out: EC50) came to 730 nM.
For the molecule `Cc1nc(-c2ccc(C(=O)NCCC(F)(F)F)cc2)no1` [Compound 75, 4-(5-methyl-1,2,4-oxadiazol-3-yl)-N-(3,3,3-trifluoropropyl)benzamide], in experiment [1] (read-out: EC50), the EC50 amounted to 62 nM.
For `CC(C)Cc1cn(-c2ccc(C(=O)NCCC(F)(F)F)cc2)nn1` [Compound 94, 4-(4-isobutyl-1H-1,2,3-triazol-1-yl)-N-(3,3,3-trifluoropropyl)benzamide], at EthR protein, the ΔTm worked out at 4.1 °C. For the same molecule, in experiment [1] (read-out: EC50), the EC50 was determined as 1200 nM.
For the molecule `CC(C)CCNS(=O)(=O)c1ccc(-c2csc(CC(N)=O)n2)cc1` [Compound 21, 2-(4-(4-(N-isopentylsulfamoyl)phenyl)thiazol-2-yl)acetamide], at EthR protein, the ΔTm is 4.6 °C. Further, in experiment [1] (read-out: EC50), the EC50 turned out to be 5000 nM.
In the case of `Cc1noc(-c2ccc(C(=O)NCCC(F)(F)F)cc2)n1` [Compound 78, 4-(3-methyl-1,2,4-oxadiazol-5-yl)-N-(3,3,3-trifluoropropyl)benzamide], the EC50 in experiment [1] (read-out: EC50) was 210 nM.
`Cc1csc(-c2ccc(S(=O)(=O)NCCC(F)(F)F)cc2)n1` [Compound 41, 4-(4-methylthiazol-2-yl)-N-(3,3,3-trifluoropropyl)benzene sulfonamide]: the ΔTm on EthR protein was 6.8 °C. For the same molecule, the EC50 in experiment [1] (read-out: EC50) stood at 660 nM.
Regarding `CC(C)(C)S(=O)(=O)Cc1nc(-c2ccc(S(=O)(=O)NCCC(F)(F)F)cc2)cs1` [Compound 39, 4-(2-(tert-butylsulfonylmethyl)thiazol-4-yl)-N-(3,3,3-trifluoropropyl)-benzene sulfonamide], the ΔTm at EthR protein amounted to 7.3 °C. In addition, the EC50 in experiment [1] (read-out: EC50) came out at 200 nM.
For `CC(C)CCCc1nc(-c2ccc(C(=O)NCCC(F)(F)F)cc2)cs1` [Compound 47, 4-(2-(4-methylpentyl)thiazol-4-yl)-N-(3,3,3-trifluoropropyl)benzamide], in that order: 13.0 °C and 30 nM.
Regarding `Cc1nc(-c2ccc(S(=O)(=O)NCC(F)(F)C(F)(F)C(F)(F)F)cc2)cs1` [Compound 28, N-(2,2,3,3,4,4,4-heptafluorobutyl)-4-(2-methylthiazol-4-yl)benzene sulfonamide], at EthR protein, the ΔTm worked out at 7.3 °C. For the same molecule, in experiment [1], the EC50 is > 2500 nM.
